The values that follow come from patent publication US12139470B2, “Trioxolane agents” (The Regents of the University of California, priority 2017, dated 2024).

Molecules are shown by their SMILES. Converted amounts (≈) assume the structure as drawn. Like-named read-outs stand apart in the source and are kept apart here.

The test system of data set [1] is K13 revertant strain bearing the wild type K13 allele. Conditions: pulsed exposure; cited from earlier work.
The subject of data set [2] is clinical K13-mutant strain. Conditions: pulsed exposure; cited from earlier work.
Data set [3] can be described thus: Dissolution in oral gavage formulation. It counts as physicochemical. Particulars: 10% DMSO, 40% of a 20% solution of 2-hydroxypropyl-cyclodextrin in water, 50% PEG400; 80, 40 and 30 mg/kg doses; sonication. The procedure: As such, we chose to screen the two regioisomers in a head-to-head study against P. berghei infected mice. In order to carry out this experiment, both compounds first needed to be formulated in a manner that would allow for treatment of the mice by oral gavage. […] Returning to the 3′ regioisomer, the actual doses were then successfully prepared according to the following instructions. The necessary amount of DMSO solution was removed from the vial and added to a new vial. For the 80 mg/kg dose, no additional DMSO was needed to be added to the vial. […] Upon adding the aqueous portion to the 80, 40, and 30 mg/kg doses, a white solution formed (resembled more of an emulsion then a heterogeneous solution). The vials were then placed in a bath sonicator in an attempt to redissolve the material. […] However, even after storing the material at −20° C., the compound was not observed to crash out of the formulation again. For the second attempt at preparing the necessary formulation for the actual OZ439, the material was partitioned such that when the dilutions were performed, the highest concentration that would be prepared from the stock solution would be the 10 mg/kg doses. As such, the 80, 40, and 30 mg/kg doses were all prepared directly by partitioning the requisite amounts into separate vials and then adding the necessary amounts of the formulation to reach the desired concentration. […]

The test system of data set [4] is Plasmodium falciparum: strain W2. The data set can be described thus: Plasmodium falciparum growth inhibition assay (EC50 determinations). Type of data set: cell-based. Conditions: Plasmodium falciparum, W2; against P. falciparum, in vitro; read-out: potency against P. falciparum.
Description: The growth inhibition assay for P. falciparum was conducted as described previously^29 with minor modifications. […] Following 48 hours of incubation, the cells were fixed by adding 0.1 ml of 2% formaldehyde in phosphate buffered saline, pH=7.4 (PBS). […] Parasitemias were determined from dot plots (forward scatter vs. fluorescence) using [sequence] software (Becton Dickinson). EC50 values for growth inhibition were determined from plots of percentage control parasitemia over inhibitor concentration using GraphPad Prism software.
A short description of data set [5]: Dissolution in DMSO (stock solution). Type of data set: physicochemical. The method, then: The way in which the formulations were prepared involved preparing a stock solution of the compound in DMSO, and then performing dilutions from this stock such that the requisite final concentration was obtained after the addition of all the necessary formulation components. Practically speaking, this was accomplished by partitioning a portion of each compound into separate 4 mL vials, and then placing these vials on the lyophilizer to ensure the compounds were completely dry. This led to a vial containing 49.5 mg of the 3′ OZ439 regioisomer, while the other held 51.0 mg of OZ439. […] This entailed adding 309.4 μL of DMSO to the vial with the 3′ OZ439 regioisomer, whereas 318.8 μL of DMSO was added to the vial containing actual OZ439. In the past, an issue has not arisen when doing this. However, this time, a major problem presented itself. The problem was not with the newly developed 3′ regioisomer of OZ439, but with OZ439 itself. After addition of DMSO to the vials, the majority of the 3′ regioisomer dissolved, whereas none of the actual OZ439 did. In an attempt to assist with dissolving the material, the two vials were then placed a water bath set to 42° C. […] The vial was then placed in a bath sonicator for 60 minutes, ultimately to no avail as […] dissolution of the material. […] At this point, the vial was then placed on the Hi-Vac to remove the DMSO. Once dry, the material was partitioned again in an attempt to get the material to dissolve at a lower concentration.
For the second attempt at preparing the necessary formulation for the actual OZ439, the material was partitioned such that when the dilutions were performed, the highest concentration that would be prepared from the stock solution would be the 10 mg/kg doses. As such, the 80, 40, and 30 mg/kg doses were all prepared directly by partitioning the requisite amounts into separate vials and then adding the necessary amounts of the formulation to reach the desired concentration. For the vial that was employed in aliquoting from to prepare the other concentrations, it contained 15.5 mg of OZ439. DMSO (775 μL) was then added to this vial, to yield a final concentration of 20 mg/mL (55 mM). […] Only after allowing the vial to warm in a 55° C. water bath for 30 minutes did the material finally dissolve. At this point, the material was brought back to the bench to aliquot the material en route to preparing the remaining doses. However, upon being removed from the bath, the compound began to crash out as it cooled to room temperature. For this reason, the vial was heated with a heat gun for about 10-15 seconds to get the material to dissolve fully once again. […]

For another data set, the system named is PC-3 xenograft. Put plainly: PET imaging of PC-3 xenograft mouse. It counts as in vivo. Particulars: tail vein injection. The text has this: Compounds 1 and specific examples B9[^18F] and B20[^18F] above are PET imaging reagent with applications in cancer, infectious disease, and inflammation. […] Additional, more quantitative, biodistribution data (e.g., biodistribution data for probes B9 and B20) is included in FIGS. 5-8. […] The imaging reagents above provides a new paradigm for imaging diverse cancer types based on metabolic changes in iron metabolism in tumors and other aspects of tumor biology (hypoxia, necrosis, macrophage infiltration). Imaging primary tumors and metastases and other therapeutic conditions involving aberrant production of labile Fe(II) such as inflammation and infection.

The conditions of data set [6]: cited from earlier work.
The nature of data set [7]: Kinetic solubility in PBS. Type of data set: physicochemical. Particulars: kinetic solubility in PBS (pH = 7.4), final DMSO 5%, average of three determinations.
A short description of data set [8]: Mouse liver microsome assay (half-life, intrinsic clearance). The text has this: A second hypothesis regarding trans-R^A substitution (R^A in Scheme 1) was that the resulting de-symmetrized molecular topology would impact the vivo PK/PD properties of these analogs. […] To explore possible metabolic differences, we evaluated selected analogs with mouse liver microsomes and derived intrinsic clearance (CLint) values (Table 1).
(Liver microsomes are vesicles of endoplasmic reticulum, rich in cytochrome P450 enzymes.)

Another data set concerns Plasmodium berghei. Put plainly: Plasmodium berghei mouse malaria model (Peters test, cures at 30 days). Particulars: po, 720 h, oral gavage, read-out: Mice Cured (%). Type of data set: in vivo. The text has this: The suppressive 4-day “Peters test” ^27 involving P. berghei infected mice provides a convenient and cost effective means to assess the overall in vivo performance of pre-clinical antimalarials. […] Mice were followed for 30 days and judged to have been cured of the infection based on the lack of detectable parasitemia at the end of the study.
Female Swiss Webster Mice (average of 20 g body weight) were infected intraperitoneally with 10^6 Plasmodium berghei-infected erythrocytes collected from a previously infected mouse. […] There were five mice in each test arm. Infections were monitored by daily microscopic evaluation of Giemsa-stained blood smears starting on day seven. Parasitemia were determined by counting the number of infected and uninfected erythrocytes. Body weight was measured over the course of the treatment. […] Animal survival and morbidity were closely monitored for up to 30 days post-infection when the experiment was terminated. In some cases survival is expressed as a PD100 or PD50, the dose that produces respectively 100% or 50% cures in treated animals at 30 days post infection.

The mark [9] stands for this setting: 160 mg/mL (341 mM) in DMSO, water bath 42° C., then 55° C. and sonication for OZ439.

As to `c1cc([C@H]2CC[C@]3(CC2)OO[C@]2(O3)C3CC4CC(C3)CC2C4)ccc1OCCN1CCOCC1` [3Z, artefenomel], the “time to reduce early ring viability by 50% (t50)” value is roughly 2 h in data set [1] and roughly 5 h in [2].

`c1cc([C@H]2CC[C@]3(CC2)OO[C@]2(O3)C3CC4CC(C3)CC2C4)ccc1OCCN1CCOCC1` [OZ439, artefenomel, reference compound]: in [3], the dissolution in formulation entry is reported as “unsuccessful in getting the material to dissolve”. In addition, in data set [4], the EC50 is 0.0079 ± 0.0002 µM. In addition, the results for the “dissolution in DMSO” value in data set [5] (20 mg/mL (55 mM) in DMSO) and in data set [5] (setting [9]) were “did not readily dissolve” and “did not dissolve”, respectively.

Turning to `O=C(NCCCNC(=O)C12CC3CC(C1)[C@]1(OO[C@]4(CC[C@@H](c5ccc(OCCN6CCOCC6)cc5)CC4)O1)C(C3)C2)c1ccc(F)cc1` [B9, N-(3-(4-fluorobenzamido)propyl)-4″-(4-(2-morpholinoethoxy)phenyl)dispiro[adamantane-2,3′-[1,2,4]trioxolane-5′,1″-cyclohexane]-5-carboxamide], in the data set with PC-3 xenograft, the PET distribution result is “accumulation in the small intestine”.

By half-life is commonly meant the time in which the quantity being followed falls by half. Consider `C[C@H]1[C@@H](O)O[C@@H]2O[C@@]3(C)CC[C@H]4[C@H](C)CC[C@@H]1[C@@]24OO3` [DHA, dihydroartemisinin], for which the half-life in data set [6] (clinical setting) is roughly 1 h.

Usually Solubility stands for the concentration that dissolves in the medium under given conditions. Lower therefore signals a poorly soluble substance. Consider `CC(C)(N)CNC(=O)C[C@H]1CC[C@]2(CC1)OO[C@]1(O2)C2CC3CC(C2)CC1C3` [2a, arterolane, reference compound], for which the “Solubility” value in [7] is 433 µM (≈ 170 µg/mL). Further, in data set [8] (half-life when incubated with mouse liver microsomes), the “T1/2” value was 2.13 h. Besides, the “T1/2 (min) No NADPH” value in [8] (mouse liver microsomes, no NADPH) is on record as “stable”. Besides, in data set [8] (mouse, microsomes), the CLint was 5.4 μL/min/mg of protein. In addition, the responders at 13.6 mg/kg/day in the data set with Plasmodium berghei (Table 2, tosylate salt, 13.6 mg/kg/day, once a day for four days, no parasitemia at 30 days) was 100%. Further, in the data set on Plasmodium berghei (Table 3, free base, 1 mg/kg/day, four daily doses), the responders at 1 mg/kg/day worked out at 0%. In addition, the responders at 4 mg/kg/day with Plasmodium berghei (Table 3, free base, 4 mg/kg/day, four daily doses) turned out to be 80%; in the data set with Plasmodium berghei (Table 4, 4 mg/kg/day, once a day for four days) it was 20%. The responders at 6 mg/kg/day with Plasmodium berghei (Table 3, free base, 6 mg/kg/day, four daily doses) is 100%; with Plasmodium berghei (Table 4, 6 mg/kg/day, once a day for four days), 80%. For the same compound, the responders at 10 mg/kg/day in the data set with Plasmodium berghei (Table 3, free base, 10 mg/kg/day, four daily doses) stood at 100%. Moreover, the “time to reduce early ring viability by 50% (t50)” value in [1] was roughly 1 h; in [2] it was roughly 3 h. Moreover, the half-life in [6] (human, in vivo) was 2 to 3 h.

For the compound `c1cc([C@@H]2CCC[C@]3(C2)OOC2(O3)C3CC4CC(C3)CC2C4)ccc1OCCN1CCOCC1` (stereo in doubt) [A5, 4-(2-(4-(dispiro[adamantane-2,3′-[1,2,4]trioxolane-5′,1″-cyclohexan]-3″-yl)phenoxy)ethyl)morpholine], the dissolution in formulation entry in data set [3] is listed as “completely dissolved”. The EC50 in data set [4] came out at 0.0195 ± 0.0016 µM. Also, the “dissolution in DMSO” value in [5] (setting [9]) was “dissolved much more rapidly in DMSO than did OZ439”; in data set [5] (160 mg/mL (341 mM) in DMSO, water bath 42° C., then 55° C. and sonication for OZ439, listed as 3′ regioisomer of OZ439), “completely dissolved”.
